Results taken from US10213432B2, “Dosage regimen for a PI-3 kinase inhibitor” (NOVARTIS AG, priority 2012, dated 2019).
Read-outs that look alike come from different tables or passages of the source.

How the values were obtained:
[1] = tested on: Hormone Receptor Positive (+) metastatic breast cancer; assay type: in vivo, human; conditions: in combination with letrozole 2.5 mg/day per oral
Procedure: An open-label, randomized multi-institution clinical study using the hydrochloride salt of Compound A alone and in combination with the therapeutic agent letrozole for the treatment of post-menopausal patients with Hormone Receptor Positive (+) metastatic breast cancer is investigated. Patients are evaluated for safety profile/tolerability and preliminary antitumor effect.
Patients are included in the study if they meet the following criteria: at least 18 years of age, ECOG performance status 0-1, suffering from clinical stage 1V invasive mammary carcinoma (ER-positive, or PR-positive) by immunohistochemistry, life expectancy equal to or greater than 6 months, adequate hematologic, hepatic and renal function (ANC≥1500/mm^3, platelet count≥100,000 mm^3, HgB≥9 g/dL, creatine≤1.5×upper limits of normal, bilirubin≤1.5×upper limits of normal, SGOT, SGPT≤2.5×upper limits of normal if no liver metasis present or SGOT, SGPT alkaline phosphatase≤5×upper limits of normal if liver metasis present, capable of swallowing and retaining oral medication, disease free of prior invasive cancers for >5 years (exception of basal or squamous cancer of skin or cervical carcinoma in situ). Patients may receive concurrent radiation therapy to painful bone metastases or areas of impending bone fracture as long as radiation therapy is completed≤2 weeks prior to study and recovered from toxicity (≤grade 1) induced by this radiation treatment. Post-menopausal female subjects are defined prior to protocol enrollment by any of the following: Subjects at least 55 years of age; Subjects under 55 years of age and amenorrheic for at least 12 months or follicle-stimulating hormone (FSH) values[…] and estradiol levels≤20 IU/L; prior bilateral oophorectomy; prior radiation castration with amenorrhea for at least 6 months; current use of an LHRH agonist for more than 12 months.
Patients with the following mood disorders as judged by investigator or psychiatrist are also excluded: medically documented history of or active major depressive episode; bipolar disorder (I or II), obsessive-compulsive disorder, schizophrenia, a history of suicidal attempt or ideation, or homicidal ideation (immediate risk of doing harm to others); or ≥CTCAE grade 3 anxiety.
In the first stage of the study, safety and tolerability of the hydrochloride salt of Compound A is evaluated in combination with the therapeutic agent letrozole in post-menopausal patients with Hormone Receptor Positive (+) metastatic breast cancer is investigated. The maximum tolerated dose of the hydrochloride salt of Compound A […] is determined at dosages of 100 mg per oral daily, 80 mg per oral daily, and 50 mg per oral daily, in combination with letrozole administered at 2.5 mg/day per oral.
In the second stage of the study, the antitumor effect of the hydrochloride salt of Compound A in combination with letrozole for the treatment of post-menopausal patients with Hormone Receptor Positive (+) metastatic breast cancer is investigated. Patients are administered the hydrochloride salt of Compound A and letrozole at a daily dosage identified to be with in the MTD in the first stage (Arm A).
In one additional experimental arm (Arm C), Patients are administered a daily dosage of the hydrochloride salt of Compound A in the amount of 60, 80 or 100 mg per oral on Monday through Fridays only each week in combination with 2.5 mg/day per oral letrozole.
Secondary outcome for the second stage is progression free survival and response.
Following the above experiment, 51 patients were accrued, 49 progressed after aromatase inhibitor therapy. Median age was 56 years and 95% of patients ad bone metastasis and 70% visceral metastases.

solid tumors = conditions: humans; Bendell et al., J. Clin. Oncology 2012; cited from earlier work
[2] = Arm C (31): 60, 80 or 100 mg per oral Monday through Fridays only

For `Nc1cc(C(F)(F)F)c(-c2cc(N3CCOCC3)nc(N3CCOCC3)n2)cn1` [Compound A, 5-(2,6-di-morpholin-4-yl-pyrimidin-4-yl)-4-trifluoromethyl-pyridin-2-ylamine], the “Median TTP” value ([1]; Arm A (20): daily dosing) was 4 (2-11) months, the “Patient outcomes: CR” value ([1]; Arm A (20): daily dosing) was 1 and the “Patient outcomes: PD” value ([1]; Arm A (20): daily dosing) was 7. For the same compound, the “Patient outcomes: PR” value ([1]; Arm A (20): daily dosing) was 1, the “Patient outcomes: SD” value ([1]; Arm A (20): daily dosing) was 9 and the “Median TTP” value [1, 2] was “Not reached”. The “Patient outcomes: CR” value [1, 2] was 0, the “Patient outcomes: PD” value [1, 2] was 8 and the “Patient outcomes: PR” value [1, 2] was 0. The “Patient outcomes: SD” value [1, 2] was 4 and the “efficacy in the treatment of solid tumors” value (solid tumors) was “has been demonstrated in humans”.
